Tested on: HepG2 cell line
Assay: MTT anti-proliferative assay, HepG2
Format: cell-based
Conditions: Homo sapiens, 48 h, three independent experiments, read-out: In vitro cytotoxicity IC50, HepG2
Method: In vitro antiproliferative activities of the target molecules were assessed against two human cancer cell lines namely, hepatocellular carcinoma (HepG2) and colorectal carcinoma (HCT-116) using MTT assay.
The anti-proliferative activity of the synthesized compounds was assessed using MTT assay protocol. A panel of human cancer cell lines namely, colorectal carcinoma (HCT-116) and hepatocellular carcinoma (HepG2) was used in this test. Doxorubicin was used as a positive control. The cell lines were got from ATCC (American Type Culture Collection) via the Holding company for biological products and vaccines (VACSERA, Cairo, Egypt). The anti-proliferative activities of the tested compounds were determined quantitatively as follows:
At first, the cells were cultured into a medium of RPMI-1640 with 10% fetal bovine serum. Then, two different antibiotics were added at 37°C in a 5% CO2 incubator: penicillin (100 units/mL) and streptomycin (100 μg/mL). Next, we seeded the cells in a 96-well plate by a density of 1.0 x 10^4 cells / well at 37°C for 48 h under 5% CO2. The synthesized compounds with different concentrations were applied into the cell lines and incubated for 48 h. After 48 h, 20 μl of MTT solution (5mg/mL) was added and incubated for 4 h. Then, DMSO (100 μl) was added into each well to dissolve the formed purple formazan. After that, a colorimetric assay was measured and recorded at absorbance of 570 nm using a plate reader (EXL 800, USA). The relative cell viability in percentage was calculated as (A570 of treated samples/A570 of untreated sample) X 100.
S2: Biological evaluation
S2.1. In vitro cytotoxic activity
The anti-proliferative activity of the synthesized compounds was assessed using MTT assay protocol. A panel of human cancer cell lines namely, colorectal carcinoma (HCT-116) and hepatocellular carcinoma (HepG2) was used in this test. As we targeted the DNA and Topo […]
cell lines were got from ATCC (American Type Culture Collection) via the Holding company for biological products and vaccines (VACSERA, Cairo, Egypt). The anti -proliferative activities of the tested compounds were determined quantitatively as follows:
At first, the cells were cultured into a medium of RPMI-1640 with 10% fetal bovine serum.
Then, two different antibiotics were added at 37 ᵒC in a 5% CO2 incubator: penicillin (100 units/mL) and streptomycin (100 µg/mL). Next, we seeded the cells in a 96 -well plate by a density of 1.0 x 10^4 cells / well at 37 ᵒC for 48 h under 5% CO2. The synthesized compounds with different concentrations were applied into the cell lines and incubated for 48 h. After 48 h, 20 µl of MTT solution (5mg/mL) was added and incubated for 4 h. Then, DMSO (100 µl) was added into each well to dissolve the formed purple formazan. After that, a colorimetric assay was measured and recorded at absorbance of 570 nm using a plate reader (EXL 800, USA). The relative cell viability in percentage was calculated as (A570 of treated samples/A570 of untreated sample) X 100. […]

`CCCNc1nc2ccccc2c2nnc(C(F)(F)F)n12` [Compound 16, N-Propyl-3-(trifluoromethyl)-[1,2,4]triazolo[4,3-c]quinazolin-5-amine] gave an IC50 of 6.29 ± 0.3 µM.

— publication PMC9886266, “New [1,2,4]triazolo[4,3-c]quinazolines as intercalative Topo II inhibitors: Design, synthesis, biological evaluation, and in silico studies” (PLOS ONE, 2023)
